The species entered for one assay is Homo sapiens. Description: Inhibition of Calmodulin activation of cyclic nucleotide phosphodiesterase. The settings on record: concentration not given here. The format is functional.
The target in a further assay is Estrogen receptor (Homo sapiens, UniProt Q92731+P03372). The note with it: mcf7.

Description for Estrogen receptor: Displacement of [3H]estradiol from Estrogen receptor in MCF-7 cells

As usually defined, the inhibition is the relative decrease from the control value, in per cent. As usually defined, the IC50 is the point on the concentration scale where inhibition reaches its midpoint. A lower IC50 goes with higher potency. As for `O=C(c1ccc(OCCN2CCCC2)cc1)c1c(-c2ccc(O)cc2)sc2cc(O)ccc12` [LY-117018], the inhibition in the assay listed under Homo sapiens stood at 3%. The compound further showed a 50% inhibitory concentration (IC50) against Estrogen receptor of 120 nM.

Consider `O=C(C1=C(c2ccc(O)cc2)CCc2cc(O)ccc21)c1ccc(OCCN2CCCCC2)cc1`, for which the inhibition in the assay filed under Homo sapiens was found to be 2%. On Estrogen receptor, this compound had a concentration for half-maximal inhibition (IC50) of 73 nM.

`O=C(c1ccc(OCCN2CCCCC2)cc1)c1c(-c2ccc(O)cc2)sc2cc(O)ccc12`: the inhibition in the assay listed under Homo sapiens turned out to be 6%.

Regarding `O=C(C1=C(c2ccccc2)CCc2cc(O)ccc21)c1ccc(OCCN2CCCCC2)cc1`, in the assay filed under Homo sapiens, the inhibition came to 6%. On Estrogen receptor, this compound yielded a half-maximal inhibitory concentration (IC50) of 1650 nM.

In the case of `Oc1ccc2c3c(ccc2c1)-c1ccccc1C3c1ccc(OCCN2CCCCC2)cc1` (configuration not stated), the inhibition in the assay listed under Homo sapiens was determined as 22%. The same compound gave a 50% inhibitory concentration (IC50) against Estrogen receptor of 740 nM.

As for `Oc1ccc2c(c1)C(c1ccc(OCCN3CCCCC3)cc1)c1c-2ccc2cc(O)ccc12` (configuration not stated), in the assay filed under Homo sapiens, the inhibition was determined as 18%. In addition, the IC50 at Estrogen receptor is recorded as 125 nM.

Turning to `CC/C(=C(\c1ccccc1)c1ccc(OCCN(C)C)cc1)c1ccccc1`, in the assay filed under Homo sapiens, the inhibition is 44%.
